Converted amounts (≈) assume the structure as drawn. Where two headings read alike, the source gives them in different places.
What was measured:
Str. faecalis A-20688 = test: MIC, tube dilution, Streptococcus faecalis A20688; type: cell-based; settings: Enterococcus faecalis, A20688, Str. faecalis A20688; overnight 37° C.; read-out: Minimum Inhibitory Concentration (M.I.C.)
Description: (§1) Representative compounds of the present invention were subjected to in vitro antibiotic screening against a variety of microorganisms.

Pr. vulgaris A-9716 = test: MIC, tube dilution, Proteus vulgaris / Proteus mirabilis A9716; type: cell-based, Proteus vulgaris (name changed to Proteus mirabilis); settings: Proteus vulgaris, A9716, Proteus vulgaris / Proteus mirabilis A9716; overnight 37° C.; read-out: Minimum Inhibitory Concentration (M.I.C.)
Description: as §1

Pr. mirabilis A-9900 = test: MIC, tube dilution, Proteus mirabilis A9900; type: cell-based; settings: Proteus mirabilis, A9900, Proteus mirabilis A9900; overnight 37° C.; read-out: Minimum Inhibitory Concentration (M.I.C.)
Description: as §1

Str. pneumoniae A-9585 = test: MIC, tube dilution, Streptococcus pneumoniae A9585; type: cell-based; settings: Streptococcus pneumoniae, A9585, Str. pneumoniae A9585; overnight 37° C., Nutrient Broth; read-out: Minimum Inhibitory Concentration (M.I.C.)
Description: as §1

Ps. aeruginosa A-9843A = test: MIC, tube dilution, Pseudomonas aeruginosa A9843A; type: cell-based; settings: Pseudomonas aeruginosa, A9843A, read-out: Minimum Inhibitory Concentration (M.I.C.), Pseudomonas aeruginosa A9843A; overnight 37° C.
Description: as §1

Staph. aureus A-9537 = test: MIC, tube dilution, Staphylococcus aureus A9537; type: cell-based; settings: Staphylococcus aureus, A9537, Staph. aureus A9537; overnight 37° C., Nutrient Broth; read-out: Minimum Inhibitory Concentration (M.I.C.)
Description: as §1

E. coli A-20341-1 = test: MIC, tube dilution, Escherichia coli A20341-1; type: cell-based
Description: as §1

Ent. cloacae A-9659 = test: MIC, tube dilution, Enterobacter cloacae A9659; type: cell-based; settings: Enterobacter cloacae, A9659, Enterobacter cloacae A9659; overnight 37° C.; read-out: Minimum Inhibitory Concentration (M.I.C.)
Description: as §1

Ser. marcescens A-20019 = test: MIC, tube dilution, Serratia marcescens A20019; type: cell-based; settings: Serratia marcescens, A20019, Serratia marcescens A20019; overnight 37° C.; read-out: Minimum Inhibitory Concentration (M.I.C.)
Description: as §1

[1] = tested on: Klebsiella species A20468; test: MIC, tube dilution, Klebsiella species A20468; type: cell-based; settings: Klebsiella species (K. pneumoniae) A20468; overnight 37° C.; read-out: Minimum Inhibitory Concentration (M.I.C.)
Description: as §1

[2] = tested on: Staph. aureus A-9537 and 50% serum; test: MIC, tube dilution, Staph. aureus A9537 + 50% serum; type: cell-based, Staphylococcus aureus; settings: Staphylococcus aureus, overnight 37° C., read-out: Minimum Inhibitory Concentration (M.I.C.)
Description: as §1

Ps. aeruginosa A-21213 = test: MIC, tube dilution, Pseudomonas aeruginosa A21213; type: cell-based; settings: overnight 37° C., read-out: Minimum Inhibitory Concentration (M.I.C.)
Description: as §1

Str. pyogenes A-9604 = test: MIC, tube dilution, Streptococcus pyogenes A9604; type: cell-based; settings: Streptococcus pyogenes, A9604, Str. pyogenes A9604; overnight 37° C., Nutrient Broth; read-out: Minimum Inhibitory Concentration (M.I.C.)
Description: as §1

Ent. cloacae A-9656 = test: MIC, tube dilution, Enterobacter cloacae A9656; type: cell-based; settings: overnight 37° C., read-out: Minimum Inhibitory Concentration (M.I.C.)
Description: as §1

Pr. morganii A-15153 = test: MIC, tube dilution, Proteus morganii A15153; type: cell-based; settings: Morganella morganii, A15153, Proteus morganii A15153; overnight 37° C.; read-out: Minimum Inhibitory Concentration (M.I.C.)
Description: as §1

[3] = tested on: Providencia stuartii A21205; test: MIC, tube dilution, Providencia stuartii (Pr. rettgeri) A21205; type: cell-based; settings: Providencia stuartii, A21205, Providencia stuartii (Pr. rettgeri) A21205; overnight 37° C.; read-out: Minimum Inhibitory Concentration (M.I.C.)
Description: as §1

K. pneumoniae A-15130 = test: MIC, tube dilution, Klebsiella pneumoniae A15130; type: cell-based; settings: Klebsiella pneumoniae, A15130, K. pneumoniae A15130; overnight 37° C.; read-out: Minimum Inhibitory Concentration (M.I.C.)
Description: as §1

[4] = tested on: Staph. aureus (Meth-Res) A-15097; test: MIC, tube dilution, Staphylococcus aureus A15097 (Meth-Res); type: cell-based; settings: Staphylococcus aureus, overnight 37° C.
Description: as §1

E. coli A-15119 = test: MIC, tube dilution, Escherichia coli A15119; type: cell-based; settings: Escherichia coli, A15119, E. coli A15119; overnight 37° C.; read-out: Minimum Inhibitory Concentration (M.I.C.)
Description: as §1

[5] = tested on: Staph. aureus (Pen-Res) A-9606; test: MIC, tube dilution, Staphylococcus aureus A9606 (Pen-Res); type: cell-based; settings: Staphylococcus aureus, Staph. aureus A9606 (Pen-Res); overnight 37° C.; read-out: Minimum Inhibitory Concentration (M.I.C.)
Description: as §1

[6] = Escherichia coli, A203411, E. coli A20341-1; overnight 37° C.; read-out: Minimum Inhibitory Concentration (M.I.C.)
[7] = Staph. aureus A15097 (Meth-Res), read-out: Minimum Inhibitory Concentration (M.I.C.)
[8] = Escherichia coli, A203411; E. coli A20341-1; overnight 37° C.; read-out: Minimum Inhibitory Concentration (M.I.C.)

SMILES | MIC (Str. faecalis A-20688) [µg/mL] | MIC (Pr. vulgaris A-9716) [µg/mL] | MIC (Pr. mirabilis A-9900) [µg/mL] | MIC (Str. pneumoniae A-9585) [µg/mL] | MIC (Ps. aeruginosa A-9843A) [µg/mL] | MIC (Staph. aureus A-9537) [µg/mL] | MIC (E. coli A-20341-1; [6]) [µg/mL] | MIC (Ent. cloacae A-9659) [µg/mL] | MIC (Ser. marcescens A-20019) [µg/mL] | MIC [1] [µg/mL] | MIC [2] [µg/mL] | MIC (Ps. aeruginosa A-21213; Pseudomonas aeruginosa A21213) [µg/mL] | MIC (Str. pyogenes A-9604) [µg/mL] | MIC (Ent. cloacae A-9656; Enterobacter cloacae A9656) [µg/mL] | MIC (Pr. morganii A-15153) [µg/mL] | MIC [3] [µg/mL] | MIC (K. pneumoniae A-15130) [µg/mL] | MIC [4, 7] [µg/mL] | MIC (E. coli A-15119) [µg/mL] | MIC [5] [µg/mL] | also measured
CC1=C(C(=O)O)N2C(=O)C(C(C)(C)O)C2S1 (centres unmarked) [Example 3, Potassium 6-(2'-Hydroxyisopropyl)-2-methylpenem-3-carboxylate] | 125 | 32 | 63 | 1 | > 125 | 2 | 63 | 125 | 63 | > 125 | > 63 | > 125 | 4 | 125 | 125 | 63 | 125 | 32 | 63 | 4 | –
O=C(O)C1=C(COc2ccccc2)S[C@@H]2CC(=O)N12 [Preparation 12, 2-Phenoxymethylpenem-3-carboxylic Acid] | 63 (≈ 227 µM) | 16 (≈ 57.7 µM) | 16 (≈ 57.7 µM) | 0.5 (≈ 1.8 µM) | > 125 | 1 (≈ 3.61 µM) | – | > 125 | > 125 | > 125 | > 63 | > 125 | 0.5 (≈ 1.8 µM) | > 125 | 16 (≈ 57.7 µM) | 63 (≈ 227 µM) | > 125 | 1 (≈ 3.61 µM) | 63 (≈ 227 µM) | 0.5 (≈ 1.8 µM) | MIC (E. coli A-20341-1; [8]): > 125 µg/mL
O=C(O)C1=C(c2ccco2)SC2CC(=O)N12 (centres unmarked) [Preparation 13, 2-(2'-Furyl)penem-3-carboxylic Acid] | 32 (≈ 135 µM) | 4 (≈ 16.9 µM) | 4 (≈ 16.9 µM) | 1 (≈ 4.22 µM) | > 63 | 1 (≈ 4.22 µM) | > 63 | 63 (≈ 266 µM) | 16 (≈ 67.4 µM) | > 63 | > 32 | – | 1 (≈ 4.22 µM) | – | 32 (≈ 135 µM) | 4 (≈ 16.9 µM) | 32 (≈ 135 µM) | 16 (≈ 67.4 µM) | 8 (≈ 33.7 µM) | 8 (≈ 33.7 µM) | MIC (Ps. aeruginosa A-21213; Pseudomonas aeruginosa, A21213, Pseudomonas aeruginosa A21213): > 63 µg/mL; MIC (Ent. cloacae A-9656; Enterobacter cloacae, A9656, Enterobacter cloacae A9656): 63 µg/mL (≈ 266 µM)
O=C(O)C1=C(CCCCN2C(=O)c3ccccc3C2=O)SC2CC(=O)N12 (centres unmarked) [Example 43, 2-(4'-Phthalimido-1'-butyl)penem-3-carboxylic Acid] | 16 (≈ 43 µM) | 16 (≈ 43 µM) | 32 (≈ 85.9 µM) | 0.016 (≈ 0.043 µM) | > 125 | 0.03 (≈ 0.0806 µM) | – | > 125 | 16 (≈ 43 µM) | > 125 | 63 | > 125 | 0.25 (≈ 0.671 µM) | 125 (≈ 336 µM) | 32 (≈ 85.9 µM) | 63 (≈ 169 µM) | > 125 | – | 63 (≈ 169 µM) | 16 (≈ 43 µM) | MIC (E. coli A-20341-1; [8]): > 125 µg/mL; MIC ([4]; read-out: Minimum Inhibitory Concentration (M.I.C.), Staph. aureus A15097 (Meth-Res)): > 125 µg/mL

— patent publication US4272437A, “Antibacterial agents, and 4-thio azetidinone intermediates” (priority 1979, dated 1981)
